Patent US20260198495A1, “BINARY INSECTICIDE COMPOSITION AND USE THEREOF” (SHENYANG SINOCHEM AGROCHEMICALS R & D CO., LTD., priority 2022, published 2026)

Key:
Type in all cases: in vivo
[1] = tested on: Myzus persicae (Sulzer) nymphs; test: Joint toxicity of I-72 + pymetrozine, Example 73, Table 73; settings: A = compound I-72, B = pymetrozine, cabbage leaf spraying, 48 hours, read-out: LC50
Protocol: Test target: Myzus persicae (Sulzer) nymphs, a sensitive strain reared indoors.
(§1) Preparation of the pesticide solution: according to different test requirements, the test samples were accurately weighed respectively with an electronic analytical balance. The technical pesticides were dissolved in acetone, and then diluted with 0.1% Tween 80 water into a series of pesticide solutions with a certain concentration gradient according to the experimental design dosage.
Experimental method: first, cabbage leaves with uniform and consistent Myzus persicae (Sulzer) were selected, with about 30-40 insects on each leaf. Then, they were evenly sprayed with the pesticide solution in the order from low dosage to high dosage according to the experimental design, with 1.5 mL of the solution for each leaf and 3 replicates for each treatment. In addition, a blank control was set up.
(§2) The treated test materials were placed in an observation room, and the temperature, humidity and illumination of the observation room could be adjusted as needed. The number of dead and live insects was investigated 48 hours later. […] Then, the co-toxicity coefficient of each ratio was calculated using the Sun Y-P method to evaluate the mixing effect, as in Example 1.

[2] = tested on: 3rd-instar larvae of Plutella xylostella; test: Joint toxicity of I-72 + chlorpyrifos, leaf-disk dipping, Example 16, Table 16; settings: 3rd-instar larvae, cabbage leaf-disk dipping, 72 h, A = compound I-72, B = chlorpyrifos, read-out: LC50
Protocol: Test target: 3rd-instar larvae of Plutella xylostella.
as §1
(§3) Experimental method: first, fresh cabbage leaves cultivated in the greenhouse were selected. The cabbage leaves were made into circular leaf disks with a diameter of 3 cm using a puncher and dipped in the prepared pesticide solution for 10 s in the order from low dosage to high dosage according to the experimental design. After natural air-drying in the shade, they were placed in a 9-cm-diameter Petri dish with filter paper, and uniform and healthy test insects were introduced, with 10 insects for each treatment and 3 replicates for each treatment. In addition, a blank control was set up.
as §2, with “needed.” for “needed. The number of dead and live insects was investigated 48 hours later.”, “effect (the same” for “effect,”, “1).” for “1.”

[3] = tested on: 2nd-instar larvae of Spodoptera exigua Hübner; test: Joint toxicity of I-72 + lufenuron, Example 54, Table 54; settings: foliar, A = compound I-72, B = lufenuron, cabbage leaf dipping, 72 hours, read-out: LC50
Protocol: Test target: 2nd-instar larvae of Spodoptera exigua Hübner.
as §1
as §3, with “first,” for “first, fresh cabbage leaves cultivated in the greenhouse were selected. The”, “selected” for “made into circular leaf disks with a diameter of 3 cm using a puncher”
as §2, with “72” for “48”, “effect (the same” for “effect,”, “1).” for “1.”

[4] = tested on: 3rd-instar larvae of Spodoptera exigua Hübner; test: Joint toxicity (LC50, CTC) of I-72 + indoxacarb, leaf-disk dipping, Example 1, Table 1; settings: Spodoptera exigua, cabbage leaf-disk dipping, 72 h, A = compound I-72, B = indoxacarb, read-out: LC50
Protocol: Test subject: 3rd-instar larvae of Spodoptera exigua Hübner, a sensitive strain reared indoors.
Test conditions: temperature: 24-26° C., humidity: RH 60%, and illumination: L:D=14:10.
Preparation method: the test pesticides were accurately weighed respectively with an electronic analytical balance. After the two technical materials were respectively added into an appropriate amount of solvent and completely dissolved, the stock solution of the required concentration was prepared with water containing 0.1% Tween 80. The stock solutions of the two active ingredients were mixed in a certain ratio to prepare a mixed solution, which was then diluted respectively into a series of pesticide solutions with a certain concentration gradient according to the experimental design dosage.
Experimental method: the dipping method was adopted. […]
The co-toxicity coefficient (CTC value) of the mixture was calculated according to the following formula:
[formula] • in the formula: ATI-measured toxicity index of the mixture; S-LC50 of the standard pesticide; and M-LC50 of the mixture. […]
[formula] • in the formula: CTC-co-toxicity coefficient; ATI-measured toxicity index of the mixture; and TTI-theoretical toxicity index of the mixture. • CTC-co-toxicity coefficient • ATI-measured toxicity index of the mixture • TTI-theoretical toxicity index of the mixture

[5] = tested on: 2nd-instar larvae of Mythimna separata; test: Joint toxicity of I-72 + hexaflumuron, Example 56, Table 56; settings: foliar, A = compound I-72, B = hexaflumuron, corn leaf dipping, 72 hours, read-out: LC50
Protocol: Test target: 2nd-instar larvae of Mythimna separata.
as §1
as §3, with “corn” for “fresh cabbage leaves cultivated in the greenhouse were selected. The cabbage”, “selected” for “made into circular leaf disks with a diameter of 3 cm using a puncher”
as §2, with “72” for “48”, “effect (the same” for “effect,”, “1).” for “1.”

[6] = tested on: Liriomyza sativae Blanchard larvae; test: Joint toxicity of I-72 + cyromazine, Example 55, Table 55; settings: A = compound I-72, B = cyromazine, kidney bean seedling spraying, counted after blank control larvae pupated, read-out: LC50
Protocol: Test target: Liriomyza sativae Blanchard larvae.
as §1
Experimental method: first, kidney bean seedlings with the Liriomyza sativae Blanchard larvae (the larvae had just invaded and formed mines) were selected. Spraying treatments were performed in the order from low dosage to high dosage according to the experimental design, with 3 replicates for each treatment. In addition, a blank control was set up.
as §2, with “After the larvae in the blank control group pupated, the numbers” for “The number”, “were then counted.” for “was investigated 48 hours later.”, “effect (the same” for “effect,”, “1).” for “1.”

In the case of `CN(C(=O)c1ccc2c(c1)OC(F)(F)O2)c1cccc(C(=O)Nc2c(Br)cc(C(F)(C(F)(F)F)C(F)(F)F)cc2OC(F)F)c1F` [Compound I-72], the LC50 [1] is reported as 7.96 µg/mL, the LC50 [2] is reported as 0.09 µg/mL and the LC50 [3] is reported as 0.273 µg/mL. The LC50 [4] was 0.227 µg/mL, the LC50 [5] was 0.0301 µg/mL and the LC50 [6] was 0.501 µg/mL.
